In ChEMBL document CHEMBL1201862, “PubChem BioAssay data set” (2004):
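Values below derive from 48-hour exposures of cells grown in 96-well plates, with endpoints linearly interpolated between the two concentrations bracketing the appropriate inhibition level. The concentration for 50% growth inhibition is given as GI50.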 The source made the active and inactive calls. Rule as the data show it: active = GI50 up to about 1.1 µM and inactive = higher.

Columns and labels:
Test in all cases: NCI-60 cell line screen, 48 h
[1] = system: KM12
[2] = system: SF-539
[3] = system: 786-0
[4] = system: MOLT-4
[5] = system: Malme-3M
[6] = system: UACC-62
[7] = system: SK-MEL-2
[8] = system: HCT-116
[9] = system: TK-10
[10] = system: A549
[11] = system: SF-295
[12] = system: HOP-62
[13] = system: SR
[14] = system: EKVX
[15] = system: U-251
[16] = system: A498
[17] = system: MDA-MB-231
[18] = system: MDA-MB-435
[19] = system: MDA-N
[20] = system: RPMI-8226

Row | SMILES | GI50 [1] | GI50 [2] | GI50 [3] | GI50 [4] | GI50 [5] | GI50 [6] | GI50 [7] | GI50 [8] | GI50 [9] | GI50 [10] | GI50 [11] | GI50 [12] | GI50 [13] | GI50 [14] | GI50 [15] | GI50 [16] | GI50 [17] | GI50 [18] | GI50 [19] | GI50 [20]
1 | CC1(C)CC2(C)ON=C(c3ccccc3)N2c2ccccc2N1 (stereo not drawn) | 30.6 µM (inactive) | 19.5 µM (inactive) | 23.3 µM (inactive) | 21.6 µM (inactive) | 20.5 µM (inactive) | 14.1 µM (inactive) | 20.9 µM (inactive) | 14.8 µM (inactive) | 39.4 µM (inactive) | 25.1 µM (inactive) | 28.7 µM (inactive) | 17.7 µM (inactive) | 34.5 µM (inactive) | 24 µM (inactive) | 19.8 µM (inactive) | 28.6 µM (inactive) | 14.4 µM (inactive) | 19.8 µM (inactive) | 21.2 µM (inactive) | 29 µM (inactive)
2 | COc1ccc(NC(=O)c2cc(NC(=O)/C=C/c3ccccc3)c(OC)c(OC)c2)cc1 | 3.83 µM (inactive) | 5.38 µM (inactive) | 11.7 µM (inactive) | 6 µM (inactive) | 18.2 µM (inactive) | 3.9 µM (inactive) | 2.58 µM (inactive) | 2.48 µM (inactive) | > 100 µM (inactive) | 7.55 µM (inactive) | 17.4 µM (inactive) | 31.5 µM (inactive) | 4.03 µM (inactive) | 54.2 µM (inactive) | 8.91 µM (inactive) | 53.6 µM (inactive) | 9.55 µM (inactive) | 3.07 µM (inactive) | 3.1 µM (inactive) | 3.83 µM (inactive)
3 | O=c1nc2n(CCO)c(-c3ccccc3)c(-c3ccccc3)nc-2c(=O)[nH]1 | > 100 µM (inactive) | > 100 µM (inactive) | > 100 µM (inactive) | > 100 µM (inactive) | > 100 µM (inactive) | > 100 µM (inactive) | > 100 µM (inactive) | > 100 µM (inactive) | > 100 µM (inactive) | > 100 µM (inactive) | > 100 µM (inactive) | > 100 µM (inactive) | 40.6 µM (inactive) | > 100 µM (inactive) | > 100 µM (inactive) | > 100 µM (inactive) | > 100 µM (inactive) | > 100 µM (inactive) | > 100 µM (inactive) | > 100 µM (inactive)
4 | Cc1cn(C2CC(O)C(CO)O2)c(=O)[nH]c1=O (stereo not drawn) | > 4930 µM (inactive) | 3670 µM (inactive) | 1160 µM (inactive) | 386 µM (inactive) | 2410 µM (inactive) | 843 µM (inactive) | 3880 µM (inactive) | 1930 µM (inactive) | > 5000 µM (inactive) | 689 µM (inactive) | 2290 µM (inactive) | 1380 µM (inactive) | > 2020 µM (inactive) | 2380 µM (inactive) | 1530 µM (inactive) | > 4670 µM (inactive) | > 3520 µM (inactive) | 4940 µM (inactive) | 3780 µM (inactive) | 2050 µM (inactive)
5 | CCN(CC)CCC(=O)N1C/C(=C/c2ccccc2)C(=O)/C(=C\c2ccccc2)C1 | 0.541 µM (active) | 3.83 µM (inactive) | 2.16 µM (inactive) | 0.28 µM (active) | 2.58 µM (inactive) | 2.03 µM (inactive) | 2.19 µM (inactive) | 0.321 µM (active) | 6.58 µM (inactive) | 4.76 µM (inactive) | 2.11 µM (inactive) | 13.2 µM (inactive) | 0.344 µM (active) | 3.42 µM (inactive) | 0.762 µM (active) | 3.96 µM (inactive) | 0.845 µM (active) | 1.7 µM (inactive) | 0.865 µM (active) | 0.114 µM (active)
6 | COc1cc2c(c(OC)c1OC)C(=O)[C@H](Br)[C@H]2NC(=O)NCCCl | 72.8 µM (inactive) | > 100 µM (inactive) | > 100 µM (inactive) | 46.7 µM (inactive) | > 100 µM (inactive) | 73.3 µM (inactive) | > 100 µM (inactive) | 82.6 µM (inactive) | > 100 µM (inactive) | 79.6 µM (inactive) | > 100 µM (inactive) | > 100 µM (inactive) | 76.2 µM (inactive) | 50.1 µM (inactive) | 51.1 µM (inactive) | > 100 µM (inactive) | > 100 µM (inactive) | 40.5 µM (inactive) | 35.2 µM (inactive) | > 100 µM (inactive)
7 | CCCCCCCCCC[S+]([O-])CC(CO)NC(=O)/C=C/c1c(C)nc(O)nc1O (stereo not drawn) | 0.202 µM (active) | 0.484 µM (active) | 10.9 µM (inactive) | 0.518 µM (active) | 0.47 µM (active) | 0.628 µM (active) | 0.721 µM (active) | – | 1.76 µM (inactive) | 2.22 µM (inactive) | – | 1.06 µM (active) | 65.2 µM (inactive) | 0.774 µM (active) | 0.132 µM (active) | 1.09 µM (active) | 2.97 µM (inactive) | 14 µM (inactive) | 25.1 µM (inactive) | 1.04 µM (active)
8 | CC(C)=NC(C(=O)O)C(C)(C)S (stereo not drawn) | > 100 µM (inactive) | > 100 µM (inactive) | > 100 µM (inactive) | > 100 µM (inactive) | > 100 µM (inactive) | > 100 µM (inactive) | > 100 µM (inactive) | > 100 µM (inactive) | > 100 µM (inactive) | > 100 µM (inactive) | > 100 µM (inactive) | > 100 µM (inactive) | > 100 µM (inactive) | > 100 µM (inactive) | > 100 µM (inactive) | > 100 µM (inactive) | > 100 µM (inactive) | > 100 µM (inactive) | > 100 µM (inactive) | > 100 µM (inactive)
9 | Cc1ccc(C(=O)/C=C2\Nc3cccnc3NC2=O)cc1 | > 100 µM (inactive) | 60.4 µM (inactive) | 40.2 µM (inactive) | > 100 µM (inactive) | 95.9 µM (inactive) | > 100 µM (inactive) | > 100 µM (inactive) | > 100 µM (inactive) | > 100 µM (inactive) | > 100 µM (inactive) | > 100 µM (inactive) | 33.6 µM (inactive) | > 100 µM (inactive) | > 100 µM (inactive) | 39.5 µM (inactive) | > 100 µM (inactive) | 30.8 µM (inactive) | > 100 µM (inactive) | > 100 µM (inactive) | > 100 µM (inactive)
10 | COC1=CC(=O)c2c(O)c3c(c(O)c2C1=O)C=C(C)OC3O (stereo not drawn) | 2.21 µM (inactive) | 1.58 µM (inactive) | 3.24 µM (inactive) | 1.58 µM (inactive) | 0.277 µM (active) | 0.859 µM (active) | 1.96 µM (inactive) | 0.569 µM (active) | 2.89 µM (inactive) | 1.42 µM (inactive) | 2.09 µM (inactive) | 2.88 µM (inactive) | 1.84 µM (inactive) | 7.35 µM (inactive) | 2.48 µM (inactive) | 2.12 µM (inactive) | 1.76 µM (inactive) | 1.25 µM (inactive) | 1.66 µM (inactive) | 1.5 µM (inactive)
